Source: patent US20120329787A1, “FUNGICIDAL PYRANONES AND OXAZINONES” (E.I. DU PONT DE NEMOURS AND COMPANY, priority 2011, published 2012)
Marks after values point to notes of the source that are not given here.

What was measured:
Type in all cases: in vivo
Alternaria solani = test: Test B: tomato early blight, spray on tomato seedlings the day before inoculation; conditions: for pest or weed control at 200 ppm: Alternaria solani, 168 h, read-out: Test B rating (100 = 100% disease control, 0 = no disease control)
Text: General protocol for preparing test suspensions for Tests A-I: the test compounds were first dissolved in acetone in an amount equal to 3% of the final volume and then suspended at the desired concentration (in ppm) in acetone and purified water (50/50 mix by volume) containing 250 ppm of the surfactant Trem® 014 (polyhydric alcohol esters). The resulting test suspensions were then used in Tests A-I. Spraying a 200 ppm test suspension to the point of run-off on the test plants was the equivalent of a rate of 500 g/ha. […] (An asterisk “*” next to the rating value indicates a 40 ppm test suspension was used.) The test suspension was sprayed to the point of run-off on tomato seedlings. The following day, the seedlings were inoculated with a spore suspension of Alternaria solani (the causal agent of tomato early blight) and incubated in a saturated atmosphere at 27° C. for 48 h, and then moved to a growth chamber at 20° C. for 5 days, after which time visual disease ratings were made. […] A dash (-) indicates no test results. All results are for 200 ppm except where followed by an asterisk “*”, which indicates a 40 ppm.

[1] = test system: Puccinia recondita f. sp. tritici; test: Test G: wheat leaf rust, spray on wheat seedlings after inoculation (curative); conditions: sprayed after inoculation; for pest or weed control at 200 ppm: Puccinia recondita, 96 h, read-out: Test G rating (100 = 100% disease control, 0 = no disease control)
Text: General protocol for preparing test suspensions for Tests A-I: the test compounds were first dissolved in acetone in an amount equal to 3% of the final volume and then suspended at the desired concentration (in ppm) in acetone and purified water (50/50 mix by volume) containing 250 ppm of the surfactant Trem® 014 (polyhydric alcohol esters). The resulting test suspensions were then used in Tests A-I. Spraying a 200 ppm test suspension to the point of run-off on the test plants was the equivalent of a rate of 500 g/ha. […] (An asterisk “*” next to the rating value indicates a 40 ppm test suspension was used.) Wheat seedlings were inoculated with a spore suspension of Puccinia recondita f. sp. tritici (the causal agent of wheat leaf rust) and incubated in a saturated atmosphere at 20° C. for 24 h, and then moved to a growth chamber at 20° C. for 2 days. At the end of this time, the test suspension was sprayed to the point of run-off, and then the seedlings were moved to a growth chamber at 20° C. for 4 days after which time visual disease ratings were made. […] A dash (-) indicates no test results. All results are for 200 ppm except where followed by an asterisk “*”, which indicates a 40 ppm.

[2] = test system: Erysiphe graminis f. sp. tritici; test: Test I: wheat powdery mildew, spray on wheat seedlings the day before inoculation; conditions: for pest or weed control at 200 ppm: Blumeria graminis, 168 h, read-out: Test I rating (100 = 100% disease control, 0 = no disease control)
Text: General protocol for preparing test suspensions for Tests A-I: the test compounds were first dissolved in acetone in an amount equal to 3% of the final volume and then suspended at the desired concentration (in ppm) in acetone and purified water (50/50 mix by volume) containing 250 ppm of the surfactant Trem® 014 (polyhydric alcohol esters). The resulting test suspensions were then used in Tests A-I. Spraying a 200 ppm test suspension to the point of run-off on the test plants was the equivalent of a rate of 500 g/ha. […] (An asterisk “*” next to the rating value indicates a 40 ppm test suspension was used.) The test suspension was sprayed to the point of run-off on wheat seedlings. The following day, the seedlings were inoculated with a spore dust of Erysiphe graminis f. sp. tritici, (the causal agent of wheat powdery mildew) and incubated in a growth chamber at 20° C. for 7 days, after which time visual disease ratings were made. […] A dash (-) indicates no test results. All results are for 200 ppm except where followed by an asterisk “*”, which indicates a 40 ppm.

Septoria tritici = test: Test F: wheat leaf blotch, spray on wheat seedlings the day before inoculation; conditions: for pest or weed control at 200 ppm: Zymoseptoria tritici, 504 h, read-out: Test F rating (100 = 100% disease control, 0 = no disease control)
Text: General protocol for preparing test suspensions for Tests A-I: the test compounds were first dissolved in acetone in an amount equal to 3% of the final volume and then suspended at the desired concentration (in ppm) in acetone and purified water (50/50 mix by volume) containing 250 ppm of the surfactant Trem® 014 (polyhydric alcohol esters). The resulting test suspensions were then used in Tests A-I. Spraying a 200 ppm test suspension to the point of run-off on the test plants was the equivalent of a rate of 500 g/ha. […] (An asterisk “*” next to the rating value indicates a 40 ppm test suspension was used.) The test suspension was sprayed to the point of run-off on wheat seedlings. The following day, the seedlings were inoculated with a spore suspension of Septoria tritici (the causal agent of wheat leaf blotch) and incubated in a saturated atmosphere at 24° C. for 48 h, and then the seedlings were moved to a growth chamber at 20° C. for 19 additional days, after which time visual disease ratings were made. […] A dash (-) indicates no test results. All results are for 200 ppm except where followed by an asterisk “*”, which indicates a 40 ppm.

Septoria nodorum = test: Test E: Septoria glume blotch, spray on wheat seedlings the day before inoculation; conditions: for pest or weed control at 200 ppm: Parastagonospora nodorum, 264 h, read-out: Test E rating (100 = 100% disease control, 0 = no disease control)
Text: General protocol for preparing test suspensions for Tests A-I: the test compounds were first dissolved in acetone in an amount equal to 3% of the final volume and then suspended at the desired concentration (in ppm) in acetone and purified water (50/50 mix by volume) containing 250 ppm of the surfactant Trem® 014 (polyhydric alcohol esters). The resulting test suspensions were then used in Tests A-I. Spraying a 200 ppm test suspension to the point of run-off on the test plants was the equivalent of a rate of 500 g/ha. […] (An asterisk “*” next to the rating value indicates a 40 ppm test suspension was used.) The test suspension was sprayed to the point of run-off on wheat seedlings. […] A dash (-) indicates no test results. All results are for 200 ppm except where followed by an asterisk “*”, which indicates a 40 ppm.

Botrytis cinerea = test: Test A: tomato Botrytis, spray on tomato seedlings the day before inoculation; conditions: for pest or weed control at 200 ppm: Botrytis cinerea, 120 h, read-out: Test A rating (100 = 100% disease control, 0 = no disease control)
Text: General protocol for preparing test suspensions for Tests A-I: the test compounds were first dissolved in acetone in an amount equal to 3% of the final volume and then suspended at the desired concentration (in ppm) in acetone and purified water (50/50 mix by volume) containing 250 ppm of the surfactant Trem® 014 (polyhydric alcohol esters). The resulting test suspensions were then used in Tests A-I. Spraying a 200 ppm test suspension to the point of run-off on the test plants was the equivalent of a rate of 500 g/ha. […] (An asterisk “*” next to the rating value indicates a 40 ppm test suspension was used.) The test suspension was sprayed to the point of run-off on tomato seedlings. The following day, the seedlings were inoculated with a spore suspension of Botrytis cinerea (the causal agent of tomato Botrytis) and incubated in a saturated atmosphere at 20° C. for 48 h, and then moved to a growth chamber at 24° C. for 3 additional days, after which time visual disease ratings were made. […] A dash (-) indicates no test results. All results are for 200 ppm except where followed by an asterisk “*”, which indicates a 40 ppm.

[3] = test system: Puccinia recondita f. sp. tritici; test: Test H: wheat leaf rust, spray on wheat seedlings the day before inoculation; conditions: sprayed before inoculation; for pest or weed control at 200 ppm: Puccinia recondita, 168 h, read-out: Test H rating (100 = 100% disease control, 0 = no disease control)
Text: General protocol for preparing test suspensions for Tests A-I: the test compounds were first dissolved in acetone in an amount equal to 3% of the final volume and then suspended at the desired concentration (in ppm) in acetone and purified water (50/50 mix by volume) containing 250 ppm of the surfactant Trem® 014 (polyhydric alcohol esters). The resulting test suspensions were then used in Tests A-I. Spraying a 200 ppm test suspension to the point of run-off on the test plants was the equivalent of a rate of 500 g/ha. […] (An asterisk “*” next to the rating value indicates a 40 ppm test suspension was used.) The test suspension was sprayed to the point of run-off on wheat seedlings. The following day, the seedlings were inoculated with a spore suspension of Puccinia recondita f. sp. tritici (the causal agent of wheat leaf rust) and incubated in a saturated atmosphere at 20° C. for 24 h, and then moved to a growth chamber at 20° C. for 6 days, after which time visual disease ratings were made Results for Tests A-I are given in Table A. […] A dash (-) indicates no test results. All results are for 200 ppm except where followed by an asterisk “*”, which indicates a 40 ppm.

[4] = 40 ppm test suspension (asterisk)

SMILES | Test B rating (100 = 100% disease control, 0 = no disease control) (Alternaria solani; [4]) | Test G rating (100 = 100% disease control, 0 = no disease control) [1, 4] | Test I rating (100 = 100% disease control, 0 = no disease control) ([2]; 200 ppm test suspension) [%] | Test F rating (100 = 100% disease control, 0 = no disease control) (Septoria tritici; [4]) | Test E rating (100 = 100% disease control, 0 = no disease control) (Septoria nodorum; [4]) | Test A rating (100 = 100% disease control, 0 = no disease control) (Botrytis cinerea; [4]) | Test H rating (100 = 100% disease control, 0 = no disease control) [3, 4] | Test B rating (100 = 100% disease control, 0 = no disease control) (Alternaria solani; 200 ppm test suspension) [%] | Test G rating (100 = 100% disease control, 0 = no disease control) ([1]; 200 ppm test suspension) [%] | Test F rating (100 = 100% disease control, 0 = no disease control) (Septoria tritici; 200 ppm test suspension) [%] | Test E rating (100 = 100% disease control, 0 = no disease control) (Septoria nodorum; 200 ppm test suspension) [%] | Test A rating (100 = 100% disease control, 0 = no disease control) (Botrytis cinerea; 200 ppm test suspension) [%] | Test H rating (100 = 100% disease control, 0 = no disease control) ([3]; 200 ppm test suspension) [%] | other results
Cc1oc(=O)c(-c2ccccc2)c(-c2ccccc2Cl)c1-c1ccc(F)cc1F [Compound 31] | 0* % | 96* % | 0 | 98* % | 0* % | 100* % | 99* % |  |  |  |  |  |  | 
COc1cc(OC)c(Cl)c(-c2c(C)noc(=O)c2-c2c(F)cc(F)cc2F)c1 [Compound 25, 4-(2-chloro-3,5-dimethoxyphenyl)-3-methyl-5-(2,4,6-trifluorophenyl)-6H-1,2-oxazin-6-one] |  |  |  |  |  |  |  |  |  |  |  |  |  | pest or weed control at 200 ppm (Alternaria solani; 200 ppm test suspension): 97%; pest or weed control at 200 ppm ([1]; 200 ppm test suspension): 100%; pest or weed control at 200 ppm ([2]; 200 ppm test suspension): 100%; pest or weed control at 200 ppm (Septoria tritici; 200 ppm test suspension): 100%; pest or weed control at 200 ppm (Septoria nodorum; 200 ppm test suspension): 0%; pest or weed control at 200 ppm (Botrytis cinerea; 200 ppm test suspension): 100%; pest or weed control at 200 ppm ([3]; 200 ppm test suspension): 100%
COc1cc(OC)cc(-c2c(-c3c(F)cc(OC)cc3F)c(C)oc(=O)c2-c2ccccc2F)c1 [Compound 39] | 100* % | 82* % | 79 | 100* % | 100* % | 100* % | 100* % |  |  |  |  |  |  | 
COc1cccc(-c2c(-c3ccc(F)cc3F)c(C)oc(=O)c2-c2ccccc2F)c1 [Compound 34] |  |  | 90 |  |  |  |  | 99 | 95 | 99 | 99 | 100 | 100 | 
COc1cccc(-c2c(-c3ccccc3F)c(C)oc(=O)c2-c2ccccc2)c1 [Compound 28] |  |  | 64 |  |  |  |  | 0 | 0 | 98 | 0 | 100 | 99 | 
Cc1oc(=O)c(-c2ccccc2)c(-c2ccccc2Cl)c1-c1ccccc1F [Compound 30] | 0* % | 0* % |  | 94* % | 0* % | 99* % | 91* % |  |  |  |  |  |  | Test I rating (100 = 100% disease control, 0 = no disease control) [2, 4]: 0* %
COc1cc(OC)cc(-c2c(-c3c(F)cccc3F)c(C)oc(=O)c2C)c1 [Compound 51] |  |  | 96 |  |  |  |  | 0 | 75 | 100 | 0 | 100 | 100 | 
COc1cc(OC)cc(-c2c(-c3c(F)cc(F)cc3F)c(C)oc(=O)c2C)c1 [Compound 55, 4-(3,5-dimethoxyphenyl)-3,6-dimethyl-5-(2,4,6-trifluorophenyl)-2H-pyran-2-one] |  |  |  |  |  |  |  |  |  |  |  |  |  | pest or weed control at 200 ppm (Alternaria solani; 200 ppm test suspension): 100%; pest or weed control at 200 ppm ([1]; 200 ppm test suspension): 100%; pest or weed control at 200 ppm ([2]; 200 ppm test suspension): 100%; pest or weed control at 200 ppm (Septoria tritici; 200 ppm test suspension): 100%; pest or weed control at 200 ppm (Septoria nodorum; 200 ppm test suspension): 99%; pest or weed control at 200 ppm (Botrytis cinerea; 200 ppm test suspension): 77%; pest or weed control at 200 ppm ([3]; 200 ppm test suspension): 100%
COc1cc(F)c(-c2c(-c3cc(OC)cc(OC)c3Cl)c(C)oc(=O)c2C)c(F)c1 [Compound 49] |  |  | 99 |  |  |  |  | 100 | 100 | 100 | 99 | 100 | 100 | 
